The structures appear in SMILES notation.

The experiment deals with T1, Oxytocin Receptor (Homo sapiens, UniProt P30559).
T1 sequence (P30559 1-389): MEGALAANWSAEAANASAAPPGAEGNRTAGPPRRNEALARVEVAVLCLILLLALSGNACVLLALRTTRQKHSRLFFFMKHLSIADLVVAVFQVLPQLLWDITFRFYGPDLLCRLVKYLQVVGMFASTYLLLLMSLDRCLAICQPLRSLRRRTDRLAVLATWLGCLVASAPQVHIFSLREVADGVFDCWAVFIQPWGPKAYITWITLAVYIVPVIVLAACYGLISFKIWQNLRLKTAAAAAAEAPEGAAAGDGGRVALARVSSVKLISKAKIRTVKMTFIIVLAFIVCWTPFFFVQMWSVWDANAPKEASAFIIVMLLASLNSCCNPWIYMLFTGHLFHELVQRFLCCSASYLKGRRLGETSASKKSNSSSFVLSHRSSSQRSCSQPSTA
Put plainly: Oxytocin Receptor Beta-lactamase assay (as detailed in WO 2004/020414). The conditions noted are these: read-out: Ki value (Oxytocin antagonist activity). The experiment is classed as cell-based. The source says: A suitable assay for determining the Oxytocin antagonist activity of a compound is detailed in International Patent Application WO 2004/020414.
Turning to `COc1ccc(-n2c(C)nnc2-c2ccc(-c3ccccc3OC)cc2)c(OCCN2CCOCC2)n1` [Example 2, 4-[2-({6-Methoxy-3-[3-(2′-methoxybiphenyl-4-yl)-5-methyl-4H-1,2,4-triazol-4-yl]pyridin-2-yl}oxy)ethyl]morpholine], the Ki was 11.2 nM.

Turning to `COc1ccc(-n2c(C)nnc2-c2ccc(-c3ccccc3OC)cc2OC)cc1` [Example 10, 3-(2′,3-Dimethoxybiphenyl-4-yl)-4-(4-methoxyphenyl)-5-methyl-4H-1,2,4-triazole], the Ki worked out at 14.6 nM.

Regarding `COc1ccc(-n2c(Cn3nccn3)nnc2-c2ccc(-c3ccccc3OC)cc2)cc1` [Example 25], the Ki worked out at 11.7 nM.

For the compound `COCCOc1nc(OC)ccc1-n1c(C)nnc1-c1ccc(-c2ccccc2OC)cc1` [Example 32, 6-Methoxy-3-[3-(2′-methoxybiphenyl-4-yl)-5-methyl-4H-1,2,4-triazol-4-yl]-2-(2-methoxyethoxy)pyridine], the Ki came to 13.8 nM.

Values taken from patent US20080214622A1, “Substituted Triazole Derivatives As Oxytocin Antagonists” (priority 2005, published 2008).
